Assay results published in ChEMBL document CHEMBL1137115, “Preparation of novel aza-1,7-annulated indoles and their conversion to potent indolocarbazole kinase inhibitors” (Bioorg Med Chem Lett, 2004).

Key:
[1] = biological target: Cyclin-dependent kinase 2/cyclin E (Homo sapiens, UniProt P24941); assay: Inhibition of Cyclin E-cyclin-dependent kinase 2; assay type: protein-complex assay
HCT-116 = assay: Antiproliferative activity was tested in human HCT116 (colon) cell line; assay type: functional, cell-based
[2] = biological target: Cyclin-dependent kinase 4/cyclin D1 (Homo sapiens, UniProt P11802); assay: Inhibition of Cyclin D1-cyclin-dependent kinase 4; assay type: protein-complex assay
Sequence of Cyclin-dependent kinase 4/cyclin D1 (P11802 whole entry): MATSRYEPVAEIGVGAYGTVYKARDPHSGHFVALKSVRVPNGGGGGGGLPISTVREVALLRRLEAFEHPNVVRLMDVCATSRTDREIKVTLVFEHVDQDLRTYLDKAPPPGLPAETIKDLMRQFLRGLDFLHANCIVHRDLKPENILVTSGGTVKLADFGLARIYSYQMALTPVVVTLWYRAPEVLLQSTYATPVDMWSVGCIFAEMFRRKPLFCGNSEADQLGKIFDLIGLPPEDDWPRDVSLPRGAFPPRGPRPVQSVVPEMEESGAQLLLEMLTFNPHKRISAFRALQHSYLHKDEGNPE
Sequence of Cyclin-dependent kinase 4/cyclin D1 (P24385 whole entry, further chain): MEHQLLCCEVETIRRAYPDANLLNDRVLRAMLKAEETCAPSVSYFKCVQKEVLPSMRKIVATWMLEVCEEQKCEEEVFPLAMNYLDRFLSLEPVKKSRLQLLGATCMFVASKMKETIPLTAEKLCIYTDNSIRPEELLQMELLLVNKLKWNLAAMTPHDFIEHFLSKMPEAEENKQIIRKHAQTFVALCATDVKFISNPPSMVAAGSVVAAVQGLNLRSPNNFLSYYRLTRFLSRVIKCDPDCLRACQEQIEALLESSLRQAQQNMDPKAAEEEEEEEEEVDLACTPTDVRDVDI

[3] = Inhibition of Protein kinase A

Row | IC50 [1] | IC50 (HCT-116) | IC50 [2] | IC50 [3] | SMILES
1 | 200 nM | 90 nM | 80 nM | 40 nM | O=C1NC(=O)c2c1c1c3ccccc3[nH]c1c1c2c2cccc3c2n1CCCCNC3
2 | 780 nM | 640 nM | 70 nM | > 2000 nM | CC(C)N1CCn2c3c(cccc3c3c4c(c5c6ccccc6[nH]c5c32)C(=O)NC4=O)C1
3 | 10 nM | 200 nM | 30 nM | 430 nM | O=C1NC(=O)c2c1c1c3ccc(F)cc3[nH]c1c1c2c2cccc3c2n1CCNC3
4 | 210 nM | 170 nM | 60 nM | > 2000 nM | O=C1NC(=O)c2c1c1c3ccc(C(F)(F)F)cc3[nH]c1c1c2c2cccc3c2n1CCNC3
5 |  | 3500 nM | 40 nM |  | O=C1NC(=O)c2c1c1c3ccc(C(F)(F)F)c(CO)c3[nH]c1c1c2c2cccc3c2n1CCNC3
6 | > 200 nM | 1600 nM | 50 nM | > 2000 nM | CS(=O)(=O)N1CCn2c3c(cccc3c3c4c(c5c6ccccc6[nH]c5c32)C(=O)NC4=O)C1
7 |  | > 10000 nM | 120 nM | > 2000 nM | Cc1cn(S(=O)(=O)N2CCn3c4c(cccc4c4c5c(c6c7ccccc7[nH]c6c43)C(=O)NC5=O)C2)cn1
8 |  | > 10000 nM |  | > 20000 nM | NCC(=O)N1CCn2c3c(cccc3c3c4c(c5c6ccccc6[nH]c5c32)C(=O)NC4=O)C1
9 | > 200 nM | 260 nM | 30 nM | 200 nM | O=C1NC(=O)c2c1c1c3cc(F)ccc3[nH]c1c1c2c2cccc3c2n1CCNC3
10 | > 200 nM | 400 nM |  | > 2000 nM | O=C1NC(=O)c2c1c1c3cc(F)c(F)cc3[nH]c1c1c2c2cccc3c2n1CCNC3
11 | 30 nM | 310 nM | 27 nM | 160 nM | O=C1NC(=O)c2c1c1c3ccccc3[nH]c1c1c2c2cccc3c2n1CCNC3
